According to ChEMBL document CHEMBL1130736, “Syntheses of new modified Phe-Pro peptides. Use of proline replacements in potential HIV inhibitors” (Bioorg Med Chem Lett, 1998):
Peptide text beside a SMILES is read from it. * marks the point of attachment. Boc = CC(C)(C)OC(=O)*

What was measured:
MT4 [1] = assay: Concentration required to cause 50% death of uninfected MT-4 cells; format: functional; conditions: Homo sapiens
[2] = Partition coefficient (logP); format: physicochemical; conditions: octanol/water
MT4 [3] = assay: Concentration required to inhibit syncytia formation by 50% in HIV infected HIV-BRU MT-4 cells; format: functional, cell-based, Homo sapiens
[4] = Homo sapiens, MT4, read-out: IC50

With O=C1CCN(C(=O)[C@H](Cc2ccccc2)NC(=O)OCc2ccccc2)C1 the CC50 (MT4 [1]) was 50 µM, the logP [2] was 3.97 and the IC50 (MT4 [3]; [4]) was 1 µM.

For O=C1CCN(C(=O)[C@H](Cc2ccccc2)NC(=O)c2cccnc2)C1, the CC50 (MT4 [1]) was > 100 µM, the logP [2] was 2.31 and the IC50 (MT4 [3]; [4]) was 0.1 µM.

For O=C1CCN(C(=O)[C@H](Cc2ccccc2)NC(=O)c2ccc3ccccc3n2)C1, the CC50 (MT4 [1]) was > 100 µM, the logP [2] was 3.44 and the IC50 (MT4 [3]; [4]) was 10 µM.

For CN(C(=O)N[C@@H](Cc1ccccc1)C(=O)N1CCC(=O)C1)c1ccccc1, the CC50 (MT4 [1]) was 50 µM, the logP [2] was 3.33 and the IC50 (MT4 [3]; mt4) was “Not Active”.

In the case of CC(C)(C)OC(=O)N[C@@H](Cc1ccccc1)C(=O)N1CCC(O)C1 (stereo not given in full), the CC50 (MT4 [1]) is reported as 100 µM, the logP [2] is reported as 3.15 and the IC50 (MT4 [3]; [4]) is reported as 50 µM.

For CC(C)(C)OC(=O)N[C@@H](Cc1ccccc1)C(=O)N1CCC[C@H]1C(=O)O (Boc-Phe-Pro-OH), the CC50 (MT4 [1]) was > 100 µM, the logP [2] was 3.96 and the IC50 (MT4 [3]; mt4) was “Not Active”.

In the case of CCCCCCCCOC(=O)N[C@@H](Cc1ccccc1)C(=O)N1CCC(=O)C1, the CC50 (MT4 [1]) is reported as 50 µM, the logP [2] is reported as 5.38 and the IC50 (MT4 [3]; mt4) is reported as “Not Active”.

With O=C1CCN(C(=O)[C@H](Cc2ccccc2)NC(=O)c2ccccc2)C1 the CC50 (MT4 [1]) was 50 µM, the logP [2] was 3.17 and the IC50 (MT4 [3]; mt4) was “Not Active”.

Compound CC(C)(C)OC(=O)N[C@@H](Cc1ccccc1)C(=O)N1CCC(=O)C1 has a CC50 (MT4 [1]) of 100 µM, a logP [2] of 3.97 and an IC50 (MT4 [3]; [4]) of 10 µM.

For O=C1CCN(C(=O)[C@H](Cc2ccccc2)NC(=O)N(c2ccccc2)c2ccccc2)C1, the CC50 (MT4 [1]) was > 100 µM, the logP [2] was 4.86 and the IC50 (MT4 [3]; mt4) was “Not Active”.
